Experimental data reported in patent publication US7888359B2, “Cyclohexyl or piperidinyl carboxamide antibiotic derivatives” (Actelion Pharmaceutical Ltd., priority 2006, dated 2011).
In brackets after ≈: the same amount, converted by molar mass.

What was measured:
Assay type in all cases: cell-based
S. aureus A798 = assay: MIC by microdilution (NCCLS) against S. aureus A798; conditions: pH 7.2-7.3; for MIC: Staphylococcus aureus, A798, cation-adjusted Mueller-Hinton Broth
Experimental: (§1) These assays have been performed following the description given in “Methods for dilution Antimicrobial Susceptibility Tests for Bacteria that Grow Aerobically, 4th ed.; Approved standard: NCCLS Document M7-A4; National Committee for Clinical Laboratory Standards Villanova, Pa., USA, 1997”. Minimal inhibitory concentrations (MICs; mg/L) were determined in cation-adjusted Mueller-Hinton Broth (BBL) by a microdilution method following NCCLS guidelines (National Committee for Clinical Laboratory Standards. Methods for Dilution Antimicrobial Susceptibility). The pH of the test medium was 7.2-7.3.

M. catarrhalis A894 = assay: MIC by microdilution (NCCLS) against M. catarrhalis A894; conditions: pH 7.2-7.3; for MIC: Moraxella catarrhalis, A894, cation-adjusted Mueller-Hinton Broth
Experimental: as §1

S. Pneumoniae 49619 = assay: MIC by microdilution (NCCLS) against S. Pneumoniae 49619; conditions: cation-adjusted Mueller-Hinton Broth, pH 7.2-7.3; for MIC: Streptococcus pneumoniae
Experimental: as §1

[1] = cation-adjusted Mueller-Hinton Broth

Row | MIC (S. aureus A798) [µg/mL] | MIC (M. catarrhalis A894) [µg/mL] | MIC (S. Pneumoniae 49619) [µg/mL] | MIC S. aureus A798 (S. aureus A798; [1]) [µg/mL] | MIC M. catarrhalis A894 (M. catarrhalis A894; [1]) [µg/mL] | MIC S. Pneumoniae 49619 (S. Pneumoniae 49619) [µg/mL] | SMILES
1 | 0.06 (≈ 0.134 µM) | 0.5 (≈ 1.11 µM) | 0.06 (≈ 0.134 µM) |  |  |  | COc1ccc2nccc(OC[C@H]3CC[C@H](C(=O)Nc4ccc5c(c4)OCCO5)CC3)c2c1 [Example 1, trans-4-(6-methoxy-quinolin-4-yloxymethyl)-cyclohexanecarboxylic acid (2,3-dihydro-benzo[1,4]dioxin-6-yl)-amide]
2 | 1 (≈ 2.03 µM) | 0.25 (≈ 0.508 µM) | 2 (≈ 4.06 µM) |  |  |  | COc1ccc2nccc(C(O)CN3CCC(C(=O)Nc4ccc5c(c4)NC(=O)CS5)CC3)c2c1 (racemic) [Example 12, (2RS)-1-[2-hydroxy-2-(6-methoxy-quinolin-4-yl)-ethyl]-piperidine-4-carboxylic acid (3-oxo-3,4-dihydro-2H-benzo[1,4]thiazin-6-yl)-amide]
3 | 1 (≈ 2.09 µM) | 8 (≈ 16.8 µM) | 8 (≈ 16.8 µM) |  |  |  | COc1ccc2nccc(CCC3(O)CCC(C(=O)N(C)c4ccc5c(c4)OCCO5)CC3)c2n1 (stereo not drawn) [Example 39, 4-hydroxy-4-[2-(6-methoxy-[1,5]naphthyridin-4-yl)-ethyl]-cyclohexanecarboxylic acid (2,3-dihydro-benzo[1,4]dioxin-6-yl)-methyl-amide]
4 |  |  |  | <0.03 | <0.03 | 0.125 (≈ 0.268 µM) | COc1cnc2cccc(CCC3(O)CCC(C(=O)N/C=C/c4cc(F)ccc4F)CC3)c2c1 (stereo not drawn) [Example 26, trans-4-hydroxy-4-[2-(3-methoxy-quinolin-5-yl)-ethyl]-cyclohexanecarboxylic acid [2-(2,5-difluoro-phenyl)-vinyl]-amide]
